{"source": "the supplement of paper PMC10307832", "assay_in_all_cases": "relative viability (nuclei count vs DMSO), 5 days (fraction); higher = more cells survive", "key": {"[1]": {"test_system": "NCI-H1944", "in_short": "(§1)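 A single step with final 0.05% Triton X-100, 1% formaldehyde and 1 ug/ml Hoechst fixed the cells and stained nuclei 5 days after treatment. Lung cancer cell lines in 1536-well plates had been treated by pin tool the day after seeding with one drug alone or a fixed anchor-drug dose plus five library-drug doses (not always all listed) in √10 steps, and nuclei were counted on 4× images. Relative viability is the ratio of nuclei in treated wells to nuclei in vehicle wells, taken as the median of duplicate plates.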"}, "[2]": {"test_system": "NCI-H596", "in_short": "as §1"}, "[3]": {"test_system": "NCI-H650", "in_short": "as §1"}, "[4]": {"test_system": "NCI-H1666", "in_short": "as §1"}, "[5]": {"test_system": "SK-MES-1", "in_short": "as §1"}, "[6]": {"test_system": "LK-2", "in_short": "as §1"}, "[7]": {"test_system": "HCC-78", "in_short": "as §1"}, "[8]": {"test_system": "NCI-H838", "in_short": "as §1"}, "[9]": {"test_system": "NCI-H1355", "in_short": "as §1"}, "[10]": {"test_system": "NCI-H1975", "in_short": "as §1"}}}
{"smiles": "O=c1cc(-c2cccc3c2Sc2ccccc2S3)oc(N2CCOCC2)c1", "note": "+ CS(=O)(=O)CCNCc1ccc(-c2ccc3ncnc(Nc4ccc(OCc5cccc(F)c5)c(Cl)c4)c3c2)o1 [Lapatinib] (partner 2 µM)", "values": [{"measurement": "relative viability", "setting": "[1]; first compound 0.08 µM", "value": 0.846}, {"measurement": "relative viability", "setting": "[1]; first compound 0.253 µM", "value": 1.07}, {"measurement": "relative viability", "setting": "[1]; first compound 0.8 µM", "value": 0.733}, {"measurement": "relative viability", "setting": "[1]; first compound 8 µM", "value": 0.998}, {"measurement": "relative viability", "setting": "[2]; first compound 0.08 µM", "value": 1.06}, {"measurement": "relative viability", "setting": "[2]; first compound 0.253 µM", "value": 1.06}, {"measurement": "relative viability", "setting": "[2]; first compound 0.8 µM", "value": 0.95}, {"measurement": "relative viability", "setting": "[2]; first compound 2.53 µM", "value": 0.894}, {"measurement": "relative viability", "setting": "[2]; first compound 8 µM", "value": 1.22}, {"measurement": "relative viability", "setting": "[3]; first compound 0.08 µM", "value": 0.819}, {"measurement": "relative viability", "setting": "[3]; first compound 0.253 µM", "value": 0.84}, {"measurement": "relative viability", "setting": "[3]; first compound 0.8 µM", "value": 1.16}, {"measurement": "relative viability", "setting": "[3]; first compound 2.53 µM", "value": 0.706}, {"measurement": "relative viability", "setting": "[3]; first compound 8 µM", "value": 0.842}, {"measurement": "relative viability", "setting": "[4]; first compound 0.08 µM", "value": 0.533}, {"measurement": "relative viability", "setting": "[4]; first compound 0.253 µM", "value": 0.781}, {"measurement": "relative viability", "setting": "[4]; first compound 0.8 µM", "value": 0.485}, {"measurement": "relative viability", "setting": "[4]; first compound 2.53 µM", "value": 0.652}, {"measurement": "relative viability", "setting": "[4]; first compound 8 µM", "value": 0.573}, {"measurement": "relative viability", "setting": "[5]; first compound 0.08 µM", "value": 0.487}, {"measurement": "relative viability", "setting": "[5]; first compound 0.253 µM", "value": 0.562}, {"measurement": "relative viability", "setting": "[5]; first compound 0.8 µM", "value": 0.445}, {"measurement": "relative viability", "setting": "[5]; first compound 2.53 µM", "value": 0.483}, {"measurement": "relative viability", "setting": "[5]; first compound 8 µM", "value": 0.439}, {"measurement": "relative viability", "setting": "[6]; first compound 0.08 µM", "value": 0.86}, {"measurement": "relative viability", "setting": "[6]; first compound 0.253 µM", "value": 1}, {"measurement": "relative viability", "setting": "[6]; first compound 0.8 µM", "value": 0.997}, {"measurement": "relative viability", "setting": "[6]; first compound 2.53 µM", "value": 0.918}, {"measurement": "relative viability", "setting": "[6]; first compound 8 µM", "value": 1.21}, {"measurement": "relative viability", "setting": "[7]; first compound 0.08 µM", "value": 0.873}, {"measurement": "relative viability", "setting": "[7]; first compound 0.253 µM", "value": 0.822}, {"measurement": "relative viability", "setting": "[7]; first compound 0.8 µM", "value": 0.718}, {"measurement": "relative viability", "setting": "[7]; first compound 2.53 µM", "value": 0.735}, {"measurement": "relative viability", "setting": "[7]; first compound 8 µM", "value": 0.901}, {"measurement": "relative viability", "setting": "[8]; first compound 0.08 µM", "value": 0.973}, {"measurement": "relative viability", "setting": "[8]; first compound 0.253 µM", "value": 1.36}, {"measurement": "relative viability", "setting": "[8]; first compound 0.8 µM", "value": 0.844}, {"measurement": "relative viability", "setting": "[8]; first compound 2.53 µM", "value": 0.969}, {"measurement": "relative viability", "setting": "[8]; first compound 8 µM", "value": 0.953}, {"measurement": "relative viability", "setting": "[9]; first compound 0.08 µM", "value": 0.963}, {"measurement": "relative viability", "setting": "[9]; first compound 0.253 µM", "value": 1.15}, {"measurement": "relative viability", "setting": "[9]; first compound 0.8 µM", "value": 0.799}, {"measurement": "relative viability", "setting": "[9]; first compound 2.53 µM", "value": 0.956}, {"measurement": "relative viability", "setting": "[9]; first compound 8 µM", "value": 1.05}, {"measurement": "relative viability", "setting": "[10]; first compound 0.08 µM", "value": 0.827}, {"measurement": "relative viability", "setting": "[10]; first compound 0.253 µM", "value": 1.06}, {"measurement": "relative viability", "setting": "[10]; first compound 0.8 µM", "value": 0.894}, {"measurement": "relative viability", "setting": "[10]; first compound 2.53 µM", "value": 0.794}, {"measurement": "relative viability", "setting": "[10]; first compound 8 µM", "value": 0.973}]}
